Results: patent publication US11958865B1, “Leucine-rich repeat kinase 2 (LRRK2) inhibitors” (H. Lundbeck A/S, priority 2022, dated 2024)
Read-outs that look alike come from different tables or passages of the source.

Tests used:
[1] = Hepatic microsomal intrinsic clearance assay; format: in vitro ADME; settings: liver microsomes 0.5 mg/mL, 1 μM, NADPH, 1 hour at 37° C., LLOQ 0.36 L/h/kg; for CLint scaled at 1 μM: pooled liver microsomes, pH 7.4
Procedure: Compounds (final concentration 1 μM, 1% organic) of the invention were incubated for 1 hour at 37° C., with shaking, in phosphate buffer (pH 7.4) containing commercially sourced pooled liver microsomes (final concentration 0.5 mg/mL). […] At designated time points (0, 5, 10, 20, 30 and 60 minutes) ice-cold acetonitrile containing internal standard (300 μL) was added to an incubation well to stop the reaction then mixed and centrifuged (3220 g for 20 minutes at 4° C.). Supernatant was diluted (1:4) with deionized water then analyzed by LC-MS/MS.

[2] = Hepatocyte intrinsic clearance assay; format: in vitro ADME, Human; settings: pooled donor, cryopreserved hepatocytes, pH 7.4; human hepatocytes 1×10^6/mL; 0.05 μM; 2 h at 37° C.
Procedure: Test compounds (final concentration 0.05 μM, 0.05% organic) were incubated for 2 h at 37° C., with shaking, in supplemented Leibovitz L-15 media (pH 7.4) containing commercially sourced, pooled donor, cryopreserved hepatocytes (final concentration 1×10^6 hepatocytes/mL). The CLint reactions (350 μL) were initiated by addition of test compound. Aliquots (25 μL) were taken at 1, 5, 10, 15, 30, 60, 90 and 120 minutes and then protein crashed with ice-cold acetonitrile containing internal standard (150 μL) then centrifuged (1960 g for 20 minutes at 4° C.). Supernatant was diluted (1:4) with deionized water then analyzed by liquid chromatography (LC)-tandem mass spectrometry (MS/MS).

[3] = Fraction unbound in rat plasma and brain homogenate by equilibrium dialysis; format: in vitro ADME, male Sprague-Dawley rat; settings: 1 μM, equilibrium dialysis 5 h at 37° C.; for fubrain (% free): rat brain homogenate; for fuplasma (% free): rat plasma
Procedure: The fraction of unbound compound in male Sprague-Dawley rat plasma (fuplasma) and brain homogenate (fubrain) were determined by equilibrium dialysis using 96-well HTD-dialysis plates with dialysis membranes (molecular weight cut off 12-14 KDa). One side of the HTD-dialysis plate was loaded with matrix (plasma or brain homogenate) and the other side with buffer (100 mM sodium phosphate buffer, pH 7.4). Test compounds were dissolved in DMSO then spiked (5 μL of 0.2 mM) into blank (995 μL) plasma or diluted brain homogenate (1:4 ratio in phosphate buffer) giving a final nominal concentration 1 μM (≤0.5% DMSO). The matrices were loaded into respective chambers and equilibrated against phosphate buffer for 5 h at 37° C. (in a humidified air incubator with 5% CO2 with shaking). Samples from both chambers (buffer and plasma or brain homogenate) were aliquoted to fresh 96-well polypropylene plates then matrix matched using an equal volume of opposite blank matrix before extraction with cold solvent (3 volumes acetonitrile) containing an appropriate bioanalytical internal standard. After centrifugation (20 min, 3200 g, 4° C.) the supernatants were diluted with appropriate volumes of water and compound concentrations were quantified by LC/MS-MS against matrix matched calibration standards. The fuplasma and fubrain were calculated according to equation 4 below.
[formula] Where [F] is the compound concentration on the buffer (receiver) side of the membrane; [T] is the compound concentration on the plasma or brain (donor) side of the membrane; D is the matrix dilution factor which is determined as D=4 for brain matrix and D=1 for plasma matrix in these assays.

[4] = Rat brain disposition after oral gavage; format: in vivo, male Sprague-Dawley rats; settings: male, Sprague-Dawley, oral 5 mg/kg, mean ± stdev
Procedure: Brain disposition was evaluated in male Sprague-Dawley rats (n=3, standard body weight). Briefly, test compound was formulated as a simple suspension (0.5% HPMC in water) then administered by oral gavage (10 mg/kg, 10 mL/kg or 5 mg/kg, 10 mL/kg). At the designated time point (0.5 or 1 h post dose) rats were sacrificed and terminal blood and brain samples taken. Isolated plasma and brain homogenates were extracted by standard protein precipitation in acetonitrile, containing internal standard. Diluted extracts were analyzed by liquid-chromatography coupled with tandem mass spectrometry detection (LC-MS/MS) using a bioanalytical method. Concentrations of test compound in plasma and brain were quantified against matrix matched calibration standards. The total plasma and brain concentration time data are presented in Table 4 alongside the calculated brain Kp (total brain concentration:total plasma concentration ratio).
The total brain-to-plasma partition coefficient (brain Kp) is given by the ratio of the total brain concentration and total plasma concentration of the compound according to the equation below: […]
Based on the measured rat fuplasma and fubrain values and the brain Kp the unbound brain-to-plasma partition coefficient (brain Kp,uu for each compound was calculated. The Kp,uu parameter describes the extent of brain penetration for each compound, i.e. the parameter gives a direct quantitative description of how the blood-brain barrier (BBB) handles the compounds regarding passive transport and active influx/efflux. The brain Kp,uu is given by the equation below: […]

[5] = brain, n=3, read-out: Total brain concentration
[6] = plasma, n=3, read-out: Total plasma concentration

## [2H]C([2H])([2H])c1c2c(nn1-c1cc(F)cnc1OC)OCCCn1nc(Cl)c3cnc(nc31)N2 (single isomer, unassigned) [Example 29, 8-Chloro-2-(5-fluoro-2-methoxypyridin-3-yl)-3-(methyl-d3)-2,4,12,13-tetrahydro-11H-5,7-(azenometheno)dipyrazolo[3,4-b:5′,1′-g][1]oxa[4,6,8]triazacycloundecine]
[1]
  CLint scaled at 1 μM: 21.3 mL/min/kg
[2]
  CLint scaled at 0.05 μM: 15.5 mL/min/kg

## Cc1ncccc1-n1nc2c(c1C)Nc1ncc3c(Cl)nn(c3n1)CCCO2 [Example 3, 8-Chloro-3-methyl-2-(2-methylpyridin-3-yl)-2,4,12,13-tetrahydro-11H-5,7-(azenometheno)dipyrazolo[3,4-b:5′,1′-g][1]oxa[4,6,8]triazacycloundecine]
[3]
  fubrain (% free): 10.4 % free
  fuplasma (% free): 22.6 % free
[4]; brain, 0.5 h, n=3
  Kp at 0.5 h: 1.1 ± 0.1
  Kp uu at 0.5 h: 0.52 ± 0.06
[4]; brain, 0.5 h, n=3, read-out: Total brain concentration
  concentration at 0.5 h: 414 ± 97 ng/g
[4]; plasma, 0.5 h, n=3, read-out: Total plasma concentration
  concentration at 0.5 h: 362 ± 38 ng/mL
[1]
  CLint scaled at 1 μM: 7.17 mL/min/kg
[2]
  CLint scaled at 0.05 μM: 6 mL/min/kg

## COc1ncc(F)cc1-n1nc2c(c1C)Nc1ncc3c(Cl)nn(c3n1)CCCO2 [Example 6, 8-Chloro-2-(5-fluoro-2-methoxypyridin-3-yl)-3-methyl-2,4,12,13-tetrahydro-11H-5,7-(azenometheno)dipyrazolo[3,4-b:5′,1′-g][1]oxa[4,6,8]triazacycloundecine]
[3]
  fubrain (% free): 3.7 % free
  fuplasma (% free): 8.9 % free
[4]; brain, n=3
  Kp at 1 h: 3 ± 0.06
  Kp uu at 1 h: 1.22 ± 0.03
[4]; [5]
  concentration at 1 h: 205 ± 21 ng/g
[4]; [6]
  concentration at 1 h: 69 ± 7 ng/mL
[1]
  CLint scaled at 1 μM: 21 mL/min/kg
[2]
  CLint scaled at 0.05 μM: 14.3 mL/min/kg

## Cc1ccc(-n2nc3c(c2C)Nc2ncc4c(Cl)nn(c4n2)CCCO3)c(C)n1 [Example 9, 8-Chloro-2-(2,6-dimethylpyridin-3-yl)-3-methyl-2,4,12,13-tetrahydro-11H-5,7-(azenometheno)dipyrazolo[3,4-b:5′,1′-g][1]oxa[4,6,8]triazacycloundecine]
[3]
  fubrain (% free): 7.4 % free
  fuplasma (% free): 10.2 % free
[4]; brain, n=3
  Kp at 1 h: 1.4 ± 0.2
  Kp uu at 1 h: 1 ± 0.12
[4]; [5]
  concentration at 1 h: 906 ± 87 ng/g
[4]; [6]
  concentration at 1 h: 664 ± 47 ng/mL
[1]
  Hepatic microsomal CLint (L/h/kg): BQL**
[2]
  CLint scaled at 0.05 μM: 16.2 mL/min/kg

## Cc1ncc(F)cc1-n1nc2c(c1C)Nc1ncc3c(Cl)nn(c3n1)CCCO2 [Example 10, 8-Chloro-2-(5-fluoro-2-methylpyridin-3-yl)-3-methyl-2,4,12,13-tetrahydro-11H-5,7-(azenometheno)dipyrazolo[3,4-b:5′,1′-g][1]oxa[4,6,8]triazacycloundecine]
[3]
  fubrain (% free): 9.3 % free
  fuplasma (% free): 22.7 % free
[4]; brain, n=3
  Kp at 1 h: 2.2 ± 0.3
  Kp uu at 1 h: 0.89 ± 0.14
[4]; [5]
  concentration at 1 h: 524 ± 79 ng/g
[4]; [6]
  concentration at 1 h: 246 ± 61 ng/mL
[1]
  CLint scaled at 1 μM: 20 mL/min/kg
[2]
  CLint scaled at 0.05 μM: 5.5 mL/min/kg

## Cc1cnc(C)c(-n2nc3c(c2C)Nc2ncc4c(Cl)nn(c4n2)CCCO3)c1 [Example 11, 8-Chloro-2-(2,5-dimethylpyridin-3-yl)-3-methyl-2,4,12,13-tetrahydro-11H-5,7-(azenometheno)dipyrazolo[3,4-b:5′,1′-g][1]oxa[4,6,8]triazacycloundecine]
[3]
  fubrain (% free): 5.3 % free
  fuplasma (% free): 11.7 % free
[4]; brain, n=3
  Kp at 1 h: 1.1 ± 0.2
  Kp uu at 1 h: 0.51 ± 0.07
[4]; [5]
  concentration at 1 h: 649 ± 99 ng/g
[4]; [6]
  concentration at 1 h: 586 ± 82 ng/mL
[1]
  CLint scaled at 1 μM: 12.3 mL/min/kg
[2]
  CLint scaled at 0.05 μM: < 4 mL/min/kg

## [2H]C([2H])([2H])c1c2c(nn1-c1ccc(C)nc1C)OCCCn1nc(Cl)c3cnc(nc31)N2 [Example 25, 8-Chloro-2-(2,6-dimethylpyridin-3-yl)-3-(methyl-d3)-2,4,12,13-tetrahydro-11H-5,7-(azenometheno)dipyrazolo[3,4-b:5′,1′-g][1]oxa[4,6,8]triazacycloundecine]
[1]
  CLint scaled at 1 μM: < 6 mL/min/kg
[2]
  CLint scaled at 0.05 μM: 19.8 mL/min/kg
